Data reported in patent US20130209446A1, “Copy Number Variant-Dependent Genes As Diagnostic Tools, Predictive Biomarkers And Therapeutic Targets” (Board of Trustees of the University of Arkansas, priority 2010, published 2013).

Key:
Experiment in all cases: MTT cell proliferation assay, PU-H71 titration
Type in all cases: cell-based
ARK = conditions: Homo sapiens, ARK myeloma cell line, 72 hours, without thrombin
Experimental: (§1) Cell growth inhibition of an anticancer agent (PU-H71) (6) was tested in a panel of myeloma cell lines. HMCLs were treated with a titration of the anti-cancer reagent PU-H71 (0 to 4,000 nM) in vitro for 72 hours. The MTT assay was utilized to detect proliferation of each cell line. The half maximal inhibitory concentration (IC50) of PU-H71 was calculated using OriginPro 7.5 statistic software.

H929 = conditions: Homo sapiens, NCI-H929, H929 myeloma cell line, 72 hours, without thrombin
Experimental: as §1

INA6 = conditions: Homo sapiens, INA-6, INA6 myeloma cell line, 72 hours, without thrombin
Experimental: as §1

JJN3 = conditions: Homo sapiens, JJN-3, JJN3 myeloma cell line, 72 hours, without thrombin
Experimental: as §1

KMS28BM = conditions: Homo sapiens, KMS-28BM, KMS28BM myeloma cell line, 72 hours, without thrombin
Experimental: as §1

KMS28PE = conditions: Homo sapiens, KMS-28PE, KMS28PE myeloma cell line, 72 hours, without thrombin
Experimental: as §1

L363 = conditions: Homo sapiens, L-363, L363 myeloma cell line, 72 hours, without thrombin
Experimental: as §1

MM144 = conditions: Homo sapiens, MM144 myeloma cell line, 72 hours, without thrombin
Experimental: as §1

OCI-MY5 = conditions: Homo sapiens, OCI-MY5 myeloma cell line, 72 hours, without thrombin
Experimental: as §1

OPM2 = conditions: Homo sapiens, OPM-2, OPM2 myeloma cell line, 72 hours, without thrombin
Experimental: as §1

RPMI8226 = conditions: Homo sapiens, RPMI-8226, RPMI8226 myeloma cell line, 72 hours, without thrombin
Experimental: as §1

U266 = conditions: Homo sapiens, U-266, U266 myeloma cell line, 72 hours, without thrombin
Experimental: as §1

XG1 = conditions: Homo sapiens, XG1 myeloma cell line, 72 hours, without thrombin
Experimental: as §1

With `CC(C)NCCCn1c(Sc2cc3c(cc2I)OCO3)nc2c(N)ncnc21` [PU-H71] the IC50 (ARK) was 0.339 µM, the IC50 (H929) was 0.21 µM and the IC50 (INA6) was 0.141 µM. For the same molecule, the IC50 (JJN3) was 0.8 µM, the IC50 (KMS28BM) was 0.164 µM and the IC50 (KMS28PE) was 0.344 µM. It also gave an IC50 (L363) of 0.232 µM, an IC50 (MM144) of 0.306 µM and an IC50 (OCI-MY5) of 0.164 µM. It also gave an IC50 (OPM2) of 0.415 µM, an IC50 (RPMI8226) of 0.485 µM and an IC50 (U266) of 0.198 µM. It also gave an IC50 (XG1) of 0.238 µM.
